Eight compounds from ChEMBL document CHEMBL4680362, “Androgen Receptor Protein Degradation in the Treatment of Castration-Resistant Prostate Cancer” (ACS Med Chem Lett, 2021) can be followed below.

The target of assay [1] is T1, von Hippel-Lindau disease tumor suppressor/Androgen receptor (Homo sapiens) (UniProt P10275+P40337). Put plainly: Protac activity at VHL/AR in human LNCaP cells assessed as degradation of AR at 0.1 uM measured after 6 hrs by Western blot analysis relative to control. It counts as cell-based. In general terms: Immunoblotting shows a protein as a band on a membrane.
T1 sequence (P10275 whole entry, looked up): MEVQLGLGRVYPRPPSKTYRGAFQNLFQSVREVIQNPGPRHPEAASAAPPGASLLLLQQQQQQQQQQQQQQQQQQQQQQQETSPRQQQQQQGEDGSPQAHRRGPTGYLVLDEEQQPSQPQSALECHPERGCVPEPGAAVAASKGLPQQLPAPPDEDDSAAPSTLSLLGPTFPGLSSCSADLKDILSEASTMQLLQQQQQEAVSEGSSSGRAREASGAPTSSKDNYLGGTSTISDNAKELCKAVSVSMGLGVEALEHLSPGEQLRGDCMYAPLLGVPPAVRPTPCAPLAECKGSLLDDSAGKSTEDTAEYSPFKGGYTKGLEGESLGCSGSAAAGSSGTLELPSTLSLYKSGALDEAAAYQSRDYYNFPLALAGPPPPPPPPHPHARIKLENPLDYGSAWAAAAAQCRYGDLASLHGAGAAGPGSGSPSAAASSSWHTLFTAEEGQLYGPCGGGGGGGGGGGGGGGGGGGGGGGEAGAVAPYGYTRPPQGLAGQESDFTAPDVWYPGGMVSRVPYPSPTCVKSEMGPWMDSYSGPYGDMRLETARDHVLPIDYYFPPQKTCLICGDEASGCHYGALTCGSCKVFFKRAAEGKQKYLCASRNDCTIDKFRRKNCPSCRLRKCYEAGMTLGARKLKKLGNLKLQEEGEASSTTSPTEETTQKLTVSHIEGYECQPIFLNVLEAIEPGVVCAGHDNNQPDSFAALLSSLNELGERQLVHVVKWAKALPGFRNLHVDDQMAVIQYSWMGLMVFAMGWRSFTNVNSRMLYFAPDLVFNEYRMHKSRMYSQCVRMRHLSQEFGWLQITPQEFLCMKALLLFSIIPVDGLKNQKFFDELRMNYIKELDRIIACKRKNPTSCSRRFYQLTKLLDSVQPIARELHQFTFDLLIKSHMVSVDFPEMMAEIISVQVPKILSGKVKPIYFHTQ
T1 sequence (P40337 whole entry, looked up): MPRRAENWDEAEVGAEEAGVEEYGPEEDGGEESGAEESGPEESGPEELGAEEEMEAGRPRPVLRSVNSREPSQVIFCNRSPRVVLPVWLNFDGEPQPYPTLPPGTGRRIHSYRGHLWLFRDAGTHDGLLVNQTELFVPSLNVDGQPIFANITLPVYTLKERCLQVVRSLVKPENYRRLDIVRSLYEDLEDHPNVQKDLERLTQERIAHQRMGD
Assay [2] deals with T1, von Hippel-Lindau disease tumor suppressor/Androgen receptor (Homo sapiens). Put plainly: Protac activity at VHL/AR in human LNCaP cells assessed as degradation of AR at 0.01 uM measured after 6 hrs by Western blot analysis relative to control. It counts as cell-based.

Turning to `Cc1ncsc1-c1ccc([C@H](CC(=O)N2CCC(N3CCC(C#Cc4ccc(C(=O)N[C@H]5C(C)(C)[C@H](Oc6ccc(C#N)c(Cl)c6)C5(C)C)cc4)CC3)CC2)NC(=O)[C@@H]2C[C@@H](O)CN2C(=O)[C@@H](NC(=O)C2(F)CC2)C(C)(C)C)cc1`, the Activity in assay [1] came out at 99%; in assay [2] it was 89%.

Consider `Cc1ncsc1-c1ccc([C@H](CC(=O)N2CCC(N3CCC(C#Cc4ccc(C(=O)N[C@H]5C(C)(C)[C@H](Oc6ccc(C#N)c(Cl)c6)C5(C)C)cc4)CC3)CC2)NC(=O)[C@@H]2C[C@@H](O)CN2C(=O)[C@@H](NC(=O)C2(C#N)CC2)C(C)(C)C)cc1`, for which the results for the Activity in assay [1] and in assay [2] were 99% and 76%, respectively.

On to `Cc1cc([C@H](C(=O)N2C[C@H](O)C[C@H]2C(=O)N[C@@H](CC(=O)NN2CCC(N3CCC(C#Cc4ccc(N5C(=S)N(c6ccc(C#N)c(C(F)(F)F)c6)C(=O)C5(C)C)cc4)CC3)CC2)c2ccc(-c3scnc3C)cc2)C(C)C)on1`, for which the Activity in assay [1] was 81%; in assay [2] it was 20%.

On to `CC1(C)[C@H](NC(=O)c2ccc(C#CC3CCN(C4CCN(c5cccc6c5C(=O)N(C5CCC(=O)NC5=O)C6=O)CC4)CC3)cc2)C(C)(C)[C@H]1Oc1ccc(C#N)c(Cl)c1` (some centres undefined), for which the Activity in assay [1] stood at 2%.

For `Cc1cc([C@H](C(=O)N2C[C@H](O)C[C@H]2C(=O)N[C@@H](CC(=O)NN2CCC(N3CCC(C#Cc4ccc(N5C(=S)N(c6cnc(C#N)c(C(F)(F)F)c6)C(=O)C56CCC6)cc4)CC3)CC2)c2ccc(-c3scnc3C)cc2)C(C)C)on1`, the Activity was determined as 80% in assay [1] and 38% in assay [2].

Turning to `Cc1cc([C@H](C(=O)N2C[C@H](O)C[C@H]2C(=O)N[C@@H](CC(=O)N2CCC(N3CCC(C#Cc4ccc(Cc5c(C)nn(-c6ccc(C#N)c(Cl)c6)c5C)cc4)CC3)CC2)c2ccc(-c3scnc3C)cc2)C(C)C)on1`, the Activity in assay [1] turned out to be 65%.

With `Cc1cc([C@H](C(=O)N2C[C@H](O)C[C@H]2C(=O)N[C@@H](CC(=O)N2CCC(N3CCC(C#Cc4ccc(C(=O)N[C@H]5C(C)(C)[C@H](Oc6ccc(C#N)c(Cl)c6)C5(C)C)cc4)CC3)CC2)c2ccc(-c3scnc3C)cc2)C(C)C)on1`, the figures for the Activity in assay [1] and in assay [2] were 98% and 76%, respectively.

For the compound `CC(=O)N[C@H](C(=O)N1C[C@H](O)C[C@H]1C(=O)N[C@@H](CC(=O)N1CCC(N2CCC(C#Cc3ccc(C(=O)N[C@H]4C(C)(C)[C@H](Oc5ccc(C#N)c(Cl)c5)C4(C)C)cc3)CC2)CC1)c1ccc(-c2scnc2C)cc1)C(C)(C)C`, the Activity came out at 77% in assay [1] and 39% in assay [2].
